From patent US20230123334A1, “AMINO LIPID COMPOUND, PREPARATION METHOD THEREFOR, AND APPLICATION THEREOF” (SHENZHEN SHENXIN BIOTECHNOLOGY CO., LTD., priority 2020, published 2023)

Experiments:
HEK293 cells [1] = experiment: Preliminary screening as DNA vectors, GFP transfection of HEK293 cells; format: cell-based; details: HEK293 cells; lipid/DOPE liposome with 75 ng plasmid DNA (psin-EGFP-IRES-Puro); number of cells expressing GFP divided by total number of nuclei (Hoechst)
How it was run: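 HEK293 cells in DMEM/10% FBS transfected with 75 ng EGFP plasmid per well complexed with amino lipid/DOPE liposomes in pH 5.6 sodium acetate. Hoechst nuclear stain added 20-24 h post-transfection, then cells cultured another 20-24 h. Confocal imaging gives GFP-positive cells as % of total nuclei.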

HEK293 cells [2] = experiment: Preliminary screening as mRNA vectors, EGFP mRNA transfection of HEK293 cells; format: cell-based; details: HEK293 cells, 96-well plates, EGFP mRNA 50 ng per well; percentage of GFP fluorescent cells relative to total number of cells (Hoechst)
How it was run: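 HEK293 cells in DMEM plus 10% FBS transfected in 96-well format with 50 ng EGFP mRNA per well; Lipofectamine2000 served as positive control. Read-out is the percentage of GFP-fluorescent cells among total cells, counted by Hoechst nuclear stain.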

SMILES | Absolute DNA transfection efficiency in HEK293 cells (HEK293 cells [1]) [%] | Absolute mRNA transfection efficiency in HEK293 cells (HEK293 cells [2]) [%]
CCCCCCCCCCCCCCCCNc1nc(NCCN2CCN(C)CC2)nc(N(CCCCCCCCCCCC)CCCCCCCCCCCC)n1 [N16^2N12D5] | 0.6 | 0.0
CCCCCCCCCCCCCCCCSc1nc(NCC2CCN(C)CC2)nc(SCCCCCCCCCCC)n1 [Compound S11S16D10] | 49.0 | 89.2
CCCCCCCCCCCCCCCCCCSc1nc(NCCN2CCOCC2)nc(SCCCCCCCCCCCCCCCC)n1 [Compound S16S18D2] | 0.0 | 0.0
CCCCCCCCCCCSc1nc(NCCCN2CCN(C)CC2)nc(SCCCCCCCCCC)n1 [Compound S10S11D9] | 13.6 | 60.6
CCCCCCCCCCCCCCCCSc1nc(NCCN(C)C)nc(SCCCCCCCCCCC)n1 [Compound S11S16D1] | 0.5 | 2.4
CCCCCCCCCCCCCCSc1nc(NCCCN(C)C)nc(SCCCCCCCCCCCCCC)n1 [Compound S14S14D6] | 0.2 | 0.2
CCCCCCCCCCCNc1nc(NCCCCCCCCC)nc(NCCCN2CCOCC2)n1 [Compound N9N11D8] | 0.0 | 0.4
CCCCCCCCCCCCCCCCCCSc1nc(NCCN2CCCC2)nc(SCCCCCCCC)n1 [Compound S8S18D3] | 14.3 | 61.5
CCCCCCCCCCCCNc1nc(NCCCCCCCCCCCC)nc(NCCN2CCCC2)n1 [Compound N12N12D3] | 1.9 | 3.8
CCCCCCCCCCCSc1nc(NCCN2CCCC2)nc(SCCCCCCCCC)n1 [Compound S9S11D3] | 10.0 | 1.9
CCCCCCCCCCCSc1nc(NCC2CCN(C)CC2)nc(SCCCCCCCCCCC)n1 [Compound S11S11D10] | 12.2 | 13.7
CCCCCCCCCCCCCCCSc1nc(NCCCN2CCOCC2)nc(SCCCCCCCCCCCCCCC)n1 [Compound S15S15D8] | 0.0 | 0.2
CCCCCCCCCCCCCCCCSc1nc(NCCCN(C)C)nc(SCCCCCCCCCCCCCCC)n1 [Compound S15S16D6] | 0.2 | 0.4
CCCCCCCCCCCCNc1nc(NCCN2CCOCC2)nc(N(CCCCCCCCCCCC)CCCCCCCCCCCC)n1 [N12^2N12D2] | 0.4 | 0.3
CCCCCCCCCCCCSc1nc(NCCN2CCCC2)nc(SCCCCCCCCCCC)n1 [Compound S11S12D3] | 5.4 | 3.2
CCCCCCCCCCCCSc1nc(NCCCN2CCOCC2)nc(SCCCCCCCCCC)n1 [Compound S10S12D8] | 20.9 | 5.4
CCCCCCCCCCCCCCCCCCSc1nc(NCC2CCN(C)CC2)nc(SCCCCCCCCCCCC)n1 [Compound S12S18D10] | 7.5 | 7.7
CCCCCCCCCCCCCCCNc1nc(NCCCCCCCCCCCCCCC)nc(NCCN2CCCCC2)n1 [Compound N15N15D4] | 1.3 | 0.8
CCCCCCCCCCCCCCSc1nc(NCCN2CCOCC2)nc(SCCCCCCCCCCCCCC)n1 [Compound S14S14D2] | 0.0 | 0.0
CCCCCCCCCCCCNc1nc(NCCCCCC)nc(NCCCN(C)C)n1 [Compound N6N12D6] | 0.3 | 0.1
CCCCCCCCCCCCCCCNc1nc(NCCCCCCCCCCCCC)nc(NCCCN2CCOCC2)n1 [Compound N13N15D8] | 0.0 | 0.0
CCCCCCNc1nc(NCCCCCC)nc(NCC2CCN(C)CC2)n1 [Compound N6N6D10] | 0.0 | 0.0
CCCCCCCCCCCCCCSc1nc(NCCN2CCCCC2)nc(SCCCCCCCCCCCCCC)n1 [Compound S14S14D4] | 0.7 | 0.8
CCCCCCCCCCCCCCCSc1nc(NCCN2CCN(C)CC2)nc(SCCCCCCCCCCCCCCC)n1 [Compound S15S15D5] | 0.3 | 0.3

SMILES | Absolute DNA transfection efficiency in HEK293 cells (HEK293 cells [1]) [%] | Absolute mRNA transfection efficiency in HEK293 cells (HEK293 cells [2]) [%]
CCCCCCCCCCCNc1nc(NCCCCCC)nc(NCCN2CCCC2)n1 [Compound N6N11D3] | 0.3 | 0.9
CCCCCCCCCCCCCCCSc1nc(NCCN2CCN(C)CC2)nc(SCCCCCCCCCC)n1 [Compound S10S15D5] | 3.7 | 9.4
CCCCCCCCCNc1nc(NCCCCCCCCC)nc(NCCCN(C)C)n1 [Compound N9N9D6] | 0.2 | 0.4
CCCCCCCCCCCSc1nc(NCCCN(C)C)nc(SCCCCCCCCCC)n1 [Compound S10S11D6] | 8.2 | 83.8
CCCCCCCNc1nc(NCCCCCC)nc(NCCN2CCCCC2)n1 [Compound N6N7D4] | 0.0 | 0.0
CCCCCCCCCCCCCCCSc1nc(NCCN(CC)CC)nc(SCCCCCCCCCCC)n1 [Compound S11S15D7] | 5.3 | 0.7
CCCCCCCCCCSc1nc(NCCCN2CCOCC2)nc(SCCCCCCCCCC)n1 [Compound S10S10D8] | 14.0 | 13.8
CCCCCCCCCCCCN(CCCCCCCCCCCC)c1nc(NCCCCCCCCC)nc(NCCCN(C)C)n1 [N9^2N12D6] | 0.3 | 0.8
CCCCCCCCCCCCNc1nc(NCCCCCCCCCCCC)nc(NCCN(C)C)n1 [Compound N12N12D1] | 0.1 | 0.2
CCCCCCCCCCCCCCCSc1nc(NCCN(C)C)nc(SCCCCCCCC)n1 [Compound S8S15D1] | 8.1 | 0.4
CCCCCCCCCCCCCCSc1nc(NCCN(CC)CC)nc(SCCCCCCCCCC)n1 [Compound S10S14D7] | 2.6 | 1.3
CCCCCCCCCCCCCCCCSc1nc(NCCN2CCCC2)nc(SCCCCCCCCCC)n1 [Compound S10S16D3] | 9.5 | 1.7
CCCCCCCCCCCCCCCCCCSc1nc(NCC2CCN(C)CC2)nc(SCCCCCCCCCCCCCCCC)n1 [Compound S16S18D10] | 0.8 | 3.0
CCCCCCCCCCCCCCCCCCNc1nc(NCCCCCCCCCCCCCCCCCC)nc(NCCN2CCN(C)CC2)n1 [Compound N18N18D5] | 1.1 | 0.0
CCCCCCCCCCCCN(CCCCCCCCCCCC)c1nc(NCCCCCC)nc(NCCN2CCN(C)CC2)n1 [N6^2N12D5] | 0.2 | 0.0
CCCCCCCCCCCCCCCCSc1nc(NCCN(CC)CC)nc(SCCCCCCCCCC)n1 [Compound S10S16D7] | 3.1 | 0.7
CCCCCCCCCCCCCCCCCCSc1nc(NCCN2CCN(C)CC2)nc(SCCCCCCCCCCC)n1 [Compound S11S18D5] | 1.7 | 3.8
CCCCCCCCCCCCCCCSc1nc(NCC2CCN(C)CC2)nc(SCCCCCCCCCCC)n1 [Compound S11S15D10] | 42.3 | 75.9
CCCCCCCCCCCCCCCCCCSc1nc(NCCN2CCN(C)CC2)nc(SCCCCCCCCCCCCCCC)n1 [Compound S15S18D5] | 0.3 | 0.4
CCCCCCCCCCCCCCCCCCSc1nc(NCCCN2CCN(C)CC2)nc(SCCCCCCCCCCCC)n1 [Compound S12S18D9] | 1.0 | 0.0
CCCCCCCCCCCCCNc1nc(NCCCCCCC)nc(NCCN(C)C)n1 [Compound N7N13D1] | 1.0 | 0.4
CCCCCCCCCCCCN(CCCCCCCCCCCC)c1nc(NCCCCCCC)nc(NCCN2CCCC2)n1 [N7^2N12D3] | 2.5 | 6.8
CCCCCCCCCCCCN(CCCCCCCCCCCC)c1nc(NCCCCCCCC)nc(NCCN2CCCCC2)n1 [N8^2N12D4] | 0.0 | 0.2
